Source: publication PMC7822892, “Avian antimicrobial peptides: in vitro and in ovo characterization and protection from early chick mortality caused by yolk sac infection” (Scientific Reports, 2021)
≈ marks a conversion by molar mass, not a printed value. Where a SMILES comes first, the peptide text is derived from it. Where no end group is shown, it is not given here.

Experiments:
[1] = tested on: all tested bacteria (E. coli, S. Enteritidis, S. Typhimurium, C. jejuni, C. perfringens); details: 10^4–10^5 CFU/ml, 2 h
[2] = tested on: Clostridium perfringens JP26; details: Clostridium perfringens JP26, 10^4–10^5 CFU/ml in PBS pH 7.4, 2 h at 37 °C, duplicate, plating
[3] = tested on: human peripheral blood mononuclear cells (PBMCs) and chicken erythrocytes; details: cited from earlier work
[4] = tested on: E. coli EC317; details: EC317, 2 h, 240 µg/ml
[5] = tested on: HD11 cells; experiment: HD11 cytotoxicity, WST-1 assay; details: 1.875 to 30 µg/ml, 24 h
[6] = tested on: human PBMCs, monocyte chemotactic protein 1 (MCP-1); design: method as in PMID 19524300; details: in vitro stimulation of human PBMCs for 24 h; cited from earlier work

Molecule: RFGRFLRKIRRFRPK [CATH-2(1–15)]
- MIC over tested Gram-negative bacteria ([1]; E. coli, S. Enteritidis, S. Typhimurium, C. jejuni): 0.92 to 7.38 µM
- Minimum inhibitory concentration (MIC) that kills 100% bacteria [2]: > 118.05 µM
- Toxicity (in words) [3]: non-toxic or very mildly toxic

Molecule: DTLACRQSHGSCSFVACRAPSVDIGTCRGGKLKCCKWAPSS (cysteines drawn unpaired) [ABD9]
- Growth inhibition [4]: 40–90%
- Minimum inhibitory concentration (MIC) that kills 100% bacteria [2]: > 55.97 µM
- Effect on growth and metabolic activity of HD11 cells (in words) [5]: not shown any significant effect

Molecule: CATH-2: mature, full-length chicken cathelicidin-2 (literature values)
- MCP-1 production (in words) [6]: significant induction

Molecule: SPIHACRYQRGVCIPGPCRWPYYRVGSCGSGLKSCCVRNRWA (cysteines drawn unpaired) [ABD6]
- Minimum inhibitory concentration (MIC) that kills 100% bacteria [2]: 50.59 µM
- Effect on growth and metabolic activity of HD11 cells (in words) [5]: not shown any significant effect

Molecule: CC[C@H](C)[C@H](NC(=O)[C@H](CC(C)C)NC(=O)[C@H](Cc1c[nH]cn1)NC(=O)[C@H](CO)NC(=O)[C@@H]1CCCN1C(=O)[C@H](CS)NC(=O)CNC(=O)CNC(=O)[C@H](Cc1ccccc1)NC(=O)[C@H](Cc1c[nH]cn1)NC(=O)[C@H](CS)NC(=O)[C@H](CO)NC(=O)CNC(=O)CNC(=O)[C@H](CCCCN)NC(=O)[C@H](CS)NC(=O)[C@H](Cc1ccccc1)NC(=O)[C@H](CC(C)C)NC(=O)[C@H](CCSC)NC(=O)[C@H](CC(=O)O)NC(=O)[C@@H](N)CCCNC(=N)N)C(=O)N[C@@H](CCCCN)C(=O)N[C@H](C(=O)NCC(=O)N[C@@H](CO)C(=O)N[C@@H](CS)C(=O)N[C@@H](Cc1ccccc1)C(=O)NCC(=O)N[C@@H](Cc1ccccc1)C(=O)N[C@@H](CCCNC(=N)N)C(=O)N[C@@H](CO)C(=O)N[C@@H](CS)C(=O)N[C@@H](CS)C(=O)N[C@@H](CCCCN)C(=O)N[C@@H](Cc1c[nH]c2ccccc12)C(=O)N1CCC[C@H]1C(=O)N[C@@H](Cc1c[nH]c2ccccc12)C(=O)N[C@@H](CC(N)=O)C(=O)N[C@@H](C)C(=O)O)C(C)C [ABD2] (H-RDMLFCKGGSCHFGGCPSHLIKVGSCFGFRSCCKWPWNA-OH)
- Minimum inhibitory concentration (MIC) that kills 100% bacteria [2]: > 55.50 µM
- Effect on growth and metabolic activity of HD11 cells (in words) [5]: not shown any significant effect

Molecule: CC[C@H](C)[C@H](NC(=O)[C@H](CCCNC(=N)N)NC(=O)[C@H](CCCCN)NC(=O)[C@H](CS)NC(=O)[C@H](CS)NC(=O)[C@H](CC(C)C)NC(=O)[C@H](Cc1ccc(O)cc1)NC(=O)[C@H](Cc1ccccc1)NC(=O)[C@H](CCCNC(=N)N)NC(=O)[C@H](CO)NC(=O)[C@H](CS)NC(=O)[C@H](CCCCN)NC(=O)CNC(=O)[C@H](CO)NC(=O)[C@@H](NC(=O)[C@H](CC(C)C)NC(=O)[C@@H](NC(=O)[C@H](CC(C)C)NC(=O)[C@H](CO)NC(=O)[C@@H]1CCCN1C(=O)[C@H](CS)NC(=O)[C@H](CCCCN)NC(=O)[C@H](CC(C)C)NC(=O)[C@H](Cc1ccccc1)NC(=O)[C@H](C)NC(=O)[C@H](CS)NC(=O)[C@H](Cc1ccccc1)NC(=O)CNC(=O)[C@H](CO)NC(=O)[C@H](CCCCN)NC(=O)[C@H](CCCNC(=N)N)NC(=O)[C@H](Cc1ccccc1)NC(=O)[C@H](CS)NC(=O)[C@H](CC(=O)O)NC(=O)[C@H](CO)NC(=O)[C@H](CCCCN)NC(=O)[C@H](CCCNC(=N)N)NC(=O)CN)[C@@H](C)O)[C@@H](C)CC)C(=O)N[C@@H](Cc1c[nH]c2ccccc12)C(=O)O [ABD1] (H-GRKSDCFRKSGFCAFLKCPSLTLISGKCSRFYLCCKRIW-OH)
- MIC over all tested bacteria ([1]; five strains): 0.83 to 1.66 µM
- Minimum inhibitory concentration (MIC) that kills 100% bacteria [2]: 0.83 µM (≈ 3.74 µg/mL)
- Effect on growth and metabolic activity of HD11 cells (in words) [5]: not shown any significant effect

Molecule: CATH-2(1–21): analog of CATH-2 (literature values)
- MCP-1 production (in words) [6]: significant induction
